Data reported in patent US20260077051A1, “COMPOUNDS FOR THE DEGRADATION OF EGFR KINASE” (BeOne Medicines I GmbH, priority 2023, published 2026).

How the values were obtained:
[1] = target: T1, EGFR-L858R/C797S (H1975-clone #8 cells) (Homo sapiens, UniProt P00533, C797S/L858R); assay: EGFR degradation in H1975-clone#8 (L858R/C797S) cells (HTRF assay); assay type: cell-based; details: 16 h treatment; for DC50: IC50(DC50) of EGFR degradation; for Dmax: maximum percentage of inhibition (degradation)
T1 construct: expressed in transfected cells; host or cells: H1975 (lentiviral transduction, endogenous EGFR knocked out, single clone #8)
How it was run: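 H1975 cells engineered to carry only homozygous exogenous EGFR L858R/C797S (clone #8) treated 16 h at 37 °C with compound, 8 doses from 10 uM in 5-fold steps, 0.1% DMSO. Remaining EGFR in lysates measured by HTRF; degradation percentage relative to DMSO control, DC50 and Dmax from 4-parameter fit.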

[2] = target: T2, EGFR L858R (BaF3-L858R cells) (Homo sapiens, UniProt P00533, L858R); assay: EGFR degradation in BaF3-L858R cells (HTRF assay); assay type: cell-based; details: 16 h treatment; for DC50: IC50(DC50) of EGFR degradation; for Dmax: maximum percentage of inhibition (degradation)
T2 construct: host or cells: BaF3
How it was run: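 BaF3-L858R cells were exposed for 16 h at 37° C to 8 doses, 5-fold dilutions starting at 10 uM final, in 0.1% DMSO medium. Lysates were incubated overnight with HTRF antibodies and read at 665/620 nm. Degradation was taken relative to DMSO control, and DC50 and Dmax came from a four-parameter fit.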

T1 sequence (P00533 25-1210 C797S/L858R): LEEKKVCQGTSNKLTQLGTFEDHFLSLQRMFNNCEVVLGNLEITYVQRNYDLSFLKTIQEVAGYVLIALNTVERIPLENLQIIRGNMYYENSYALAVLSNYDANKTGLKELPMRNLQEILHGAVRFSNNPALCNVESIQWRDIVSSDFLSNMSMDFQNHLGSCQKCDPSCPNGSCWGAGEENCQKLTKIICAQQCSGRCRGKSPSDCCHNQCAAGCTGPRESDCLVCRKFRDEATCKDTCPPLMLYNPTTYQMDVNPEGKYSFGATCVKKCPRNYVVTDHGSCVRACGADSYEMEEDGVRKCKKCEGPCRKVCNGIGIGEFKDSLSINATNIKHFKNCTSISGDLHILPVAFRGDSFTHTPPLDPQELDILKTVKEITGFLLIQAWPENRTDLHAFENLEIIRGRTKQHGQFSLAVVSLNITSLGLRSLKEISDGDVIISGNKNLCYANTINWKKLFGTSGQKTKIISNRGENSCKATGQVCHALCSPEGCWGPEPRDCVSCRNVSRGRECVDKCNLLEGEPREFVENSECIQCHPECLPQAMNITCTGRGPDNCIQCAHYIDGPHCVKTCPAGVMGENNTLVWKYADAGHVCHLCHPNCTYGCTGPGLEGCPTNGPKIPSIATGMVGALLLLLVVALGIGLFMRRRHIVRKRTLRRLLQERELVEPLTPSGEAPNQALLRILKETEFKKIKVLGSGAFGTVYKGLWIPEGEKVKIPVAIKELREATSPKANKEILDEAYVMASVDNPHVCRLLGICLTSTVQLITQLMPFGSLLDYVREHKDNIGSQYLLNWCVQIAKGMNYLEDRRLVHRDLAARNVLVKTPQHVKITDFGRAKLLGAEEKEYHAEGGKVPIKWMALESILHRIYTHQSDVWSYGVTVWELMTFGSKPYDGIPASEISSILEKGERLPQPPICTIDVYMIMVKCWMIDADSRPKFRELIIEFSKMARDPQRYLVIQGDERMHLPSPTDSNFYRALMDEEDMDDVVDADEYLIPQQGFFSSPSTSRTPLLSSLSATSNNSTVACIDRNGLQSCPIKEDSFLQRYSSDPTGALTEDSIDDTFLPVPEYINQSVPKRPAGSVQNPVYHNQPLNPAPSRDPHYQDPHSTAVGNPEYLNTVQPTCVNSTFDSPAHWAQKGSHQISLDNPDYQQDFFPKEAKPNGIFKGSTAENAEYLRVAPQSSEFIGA
T2 sequence (P00533 25-1210 L858R): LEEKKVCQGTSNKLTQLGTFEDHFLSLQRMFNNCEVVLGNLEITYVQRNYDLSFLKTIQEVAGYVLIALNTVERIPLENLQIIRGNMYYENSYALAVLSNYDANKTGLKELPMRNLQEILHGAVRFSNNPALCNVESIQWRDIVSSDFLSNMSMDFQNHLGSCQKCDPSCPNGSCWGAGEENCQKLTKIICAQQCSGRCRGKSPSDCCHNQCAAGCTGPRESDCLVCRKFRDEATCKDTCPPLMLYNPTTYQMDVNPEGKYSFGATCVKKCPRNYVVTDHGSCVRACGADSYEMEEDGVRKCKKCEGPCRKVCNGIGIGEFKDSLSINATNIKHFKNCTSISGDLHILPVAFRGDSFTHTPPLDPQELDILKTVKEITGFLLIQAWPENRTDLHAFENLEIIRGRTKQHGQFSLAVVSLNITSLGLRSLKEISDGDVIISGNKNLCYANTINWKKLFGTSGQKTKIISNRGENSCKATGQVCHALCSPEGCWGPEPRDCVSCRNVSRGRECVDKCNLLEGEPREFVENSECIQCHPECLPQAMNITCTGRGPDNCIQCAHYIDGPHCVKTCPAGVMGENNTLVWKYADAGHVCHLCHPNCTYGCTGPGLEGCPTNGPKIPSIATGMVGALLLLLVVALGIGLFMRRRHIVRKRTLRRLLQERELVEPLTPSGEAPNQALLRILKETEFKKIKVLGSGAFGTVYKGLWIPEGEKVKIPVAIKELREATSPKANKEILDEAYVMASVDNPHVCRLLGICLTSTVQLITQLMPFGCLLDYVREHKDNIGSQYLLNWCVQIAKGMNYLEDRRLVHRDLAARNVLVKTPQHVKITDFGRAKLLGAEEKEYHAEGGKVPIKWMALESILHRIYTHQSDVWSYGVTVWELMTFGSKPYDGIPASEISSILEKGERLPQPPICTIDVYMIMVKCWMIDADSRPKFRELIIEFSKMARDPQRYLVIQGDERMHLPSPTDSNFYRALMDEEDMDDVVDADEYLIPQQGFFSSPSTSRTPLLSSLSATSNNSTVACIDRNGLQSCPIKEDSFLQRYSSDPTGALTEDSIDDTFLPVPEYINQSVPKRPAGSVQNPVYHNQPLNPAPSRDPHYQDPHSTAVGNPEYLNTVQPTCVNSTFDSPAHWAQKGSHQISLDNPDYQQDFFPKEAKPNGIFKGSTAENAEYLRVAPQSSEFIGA

With CCc1nc(C2CCC(=O)NC2=O)ccc1N1CC[C@@H](N2CCN(c3ccc4c(c3)N3C[C@H]5C[C@@H]5CCOc5c(cnn5C)-c5cc(cc(C)n5)C(=O)/N=C/3N4)CC2)[C@@H](F)C1 (stereo partly drawn) [Example 32, 3-(5-((3S,4R)-4-(4-((7^1S,7^2R,E)-1^1,2^6-dimethyl-3-oxo-5^2,5^3-dihydro-1^1H,5^1H-10-oxa-4-aza-5 (2,1)-benzo[d]imidazola-2 (2,4)-pyridina-1 (4,5)-pyrazola-7 (1,2)-cyclopropanacyclodecaphane-5^6-yl)piperazin-1-yl)-3-fluoropiperidin-1-yl)-6-ethylpyridin-2-yl)piperidine-2,6-dione] the DC50 [1] was 10.5 nM, the Dmax [1] was 60.9% and the DC50 [2] was 6.44 nM. The Dmax [2] was 84.5%.
Work on Cc1cc2cc(n1)-c1cnn(C)c1OCC[C@]1(C)C[C@H]1CN1/C(=N/C2=O)Nc2ccc(N3CCN([C@H]4CCN(c5ccc(C6CCC(=O)NC6=O)nc5C)C[C@H]4F)CC3)cc21 (stereo partly drawn) [Example 62, 3-(5-((3R,4S)-3-fluoro-4-(4-((7^1R,7^2S,E)-1^1,2^6,7^2-trimethyl-3-oxo-5^2,5^3-dihydro-1^1H,5^1H-10-oxa-4-aza-5 (2,1)-benzo[d]imidazola-2 (2,4)-pyridina-1 (4,5)-pyrazola-7 (1,2)-cyclopropanacyclodecaphane-5^6-yl)piperazin-1-yl)piperidin-1-yl)-6-methylpyridin-2-yl)piperidine-2,6-dione] yielded a DC50 [1] of 0.612 nM, a Dmax [1] of 76.8% and a DC50 [2] of 0.69 nM. For the same molecule, the Dmax [2] was 93.8%.
Cc1cc2cc(n1)-c1cnn(C)c1OCC[C@H]1C[C@@H]1CN1/C(=N/C2=O)Nc2ccc(N3CCN([C@H]4CCN(c5cnc(C6CCC(=O)NC6=O)cc5C)C[C@H]4F)CC3)cc21 (stereo partly drawn) [Example 11, 3-(5-((3R,4S)-4-(4-((7^1S,7^2R,E)-1^1,2^6-dimethyl-3-oxo-5^2,5^3-dihydro-1^1H,5^1H-10-oxa-4-aza-5 (2,1)-benzo[d]imidazola-2 (2,4)-pyridina-1 (4,5)-pyrazola-7 (1,2)-cyclopropanacyclodecaphane-5^6-yl)piperazin-1-yl)-3-fluoropiperidin-1-yl)-4-methylpyridin-2-yl)piperidine-2,6-dione] showed a DC50 [1] of 1.44 nM, a Dmax [1] of 51.8% and a DC50 [2] of 7.62 nM. For the same molecule, the Dmax [2] was 71.2%.
Work on Cc1cc2cc(n1)-c1cnn(C)c1OCC[C@]1(C)C[C@H]1CN1/C(=N/C2=O)Nc2ccc(N3CCN(C4CN(C5CCN(c6cc(F)c([C@H]7CCC(=O)NC7=O)c(F)c6)CC5)C4)C[C@@H]3C)cc21 [Example 27, (R)-3-(2,6-difluoro-4-(4-(3-((S)-3-methyl-4-((7^1R,7^2S,E)-1^1,2^6,7^2-trimethyl-3-oxo-5^2,5^3-dihydro-1^1H,5^1H-10-oxa-4-aza-5 (2,1)-benzo[d]imidazola-2 (2,4)-pyridina-1 (4,5)-pyrazola-7 (1,2)-cyclopropanacyclodecaphane-5^6-yl)piperazin-1-yl)azetidin-1-yl)piperidin-1-yl)phenyl)piperidine-2,6-dione] yielded a DC50 [1] of 1.31 nM, a Dmax [1] of 63.6% and a DC50 [2] of 1.25 nM. For the same molecule, the Dmax [2] was 79.1%.
Work on Cc1cc2cc(n1)-c1cnn(C)c1OCC[C@H]1C[C@@H]1CN1/C(=N/C2=O)Nc2ccc(N3CCN(C4CCN(c5cccc6c5C(C)(C)C(=O)N6C5CCC(=O)NC5=O)CC4)CC3)cc21 (stereo partly shown) [Example 18, 3-(4-(4-(4-((7^1S,7^2R,E)-1^1,2^6-dimethyl-3-oxo-5^2,5^3-dihydro-1^1H,5^1H-10-oxa-4-aza-5 (2,1)-benzo[d]imidazola-2 (2,4)-pyridina-1 (4,5)-pyrazola-7 (1,2)-cyclopropanacyclodecaphane-5^6-yl)piperazin-1-yl)piperidin-1-yl)-3,3-dimethyl-2-oxoindolin-1-yl)piperidine-2,6-dione] yielded a DC50 [1] of 5.12 nM, a Dmax [1] of 66.3% and a DC50 [2] of 6.69 nM. It also gave a Dmax [2] of 84.6%.
Cc1cc2cc(n1)-c1cnn(C)c1OCC[C@H]1C[C@@H]1CN1/C(=N/C2=O)Nc2ccc(N3CCN([C@@H]4CCN(c5c(C)cc(C6CCC(=O)NC6=O)nc5C)C[C@@H]4F)CC3)cc21 (stereo partly drawn) [Example 33, 3-(5-((3S,4R)-4-(4-((7^1S,7^2R,E)-1^1,2^6-dimethyl-3-oxo-5^2,5^3-dihydro-1^1H,5^1H-10-oxa-4-aza-5 (2,1)-benzo[d]imidazola-2 (2,4)-pyridina-1 (4,5)-pyrazola-7 (1,2)-cyclopropanacyclodecaphane-5^6-yl)piperazin-1-yl)-3-fluoropiperidin-1-yl)-4,6-dimethylpyridin-2-yl)piperidine-2,6-dione] was tested, and the DC50 [1] was 4.74 nM, the Dmax [1] was 44.3% and the DC50 [2] was 8.38 nM. For the same molecule, the Dmax [2] was 89.1%.
Cc1cc2cc(n1)-c1cnn(C)c1OCC[C@]1(C)C[C@H]1CN1/C(=N/C2=O)Nc2ccc(N3CCN([C@@H]4CCN(c5cccc6c5C(C)(C)C(=O)N6C5CCC(=O)NC5=O)C[C@@H]4F)CC3)cc21 (stereo partly drawn) [Example 57, 3-(4-((3S,4R)-3-fluoro-4-(4-((7^1R,7^2S,E)-1^1,2^6,7^2-trimethyl-3-oxo-5^2,5^3-dihydro-1^1H,5^1H-10-oxa-4-aza-5 (2,1)-benzo[d]imidazola-2 (2,4)-pyridina-1 (4,5)-pyrazola-7 (1,2)-cyclopropanacyclodecaphane-5^6-yl)piperazin-1-yl)piperidin-1-yl)-3,3-dimethyl-2-oxoindolin-1-yl)piperidine-2,6-dione] showed a DC50 [1] of 4.21 nM, a Dmax [1] of 61.7% and a DC50 [2] of 3.2 nM. It also gave a Dmax [2] of 91.3%.
